# Laboratory results from ChEMBL document CHEMBL5329199, “Discovery of novel dual Bruton's tyrosine kinase (BTK) and Janus kinase 3 (JAK3) inhibitors as a promising strategy for rheumatoid arthritis” (Bioorg Med Chem, 2023).
# What was measured:
# [1] = biological target: Tyrosine-protein kinase BTK (Homo sapiens, UniProt Q06187); assay: Inhibition of BTK (unknown origin) preincubated for 10 mins followed by kinase substrate and ATP addition and measured for 20 mins by mobility shift assay
# [2] = biological target: T1, Tyrosine-protein kinase JAK3 (Homo sapiens, UniProt P52333); assay: Inhibition of JAK3 (unknown origin) preincubated for 10 mins followed by kinase substrate and ATP addition and measured for 30 mins by mobility shift assay
# T1 sequence (P52333 whole entry): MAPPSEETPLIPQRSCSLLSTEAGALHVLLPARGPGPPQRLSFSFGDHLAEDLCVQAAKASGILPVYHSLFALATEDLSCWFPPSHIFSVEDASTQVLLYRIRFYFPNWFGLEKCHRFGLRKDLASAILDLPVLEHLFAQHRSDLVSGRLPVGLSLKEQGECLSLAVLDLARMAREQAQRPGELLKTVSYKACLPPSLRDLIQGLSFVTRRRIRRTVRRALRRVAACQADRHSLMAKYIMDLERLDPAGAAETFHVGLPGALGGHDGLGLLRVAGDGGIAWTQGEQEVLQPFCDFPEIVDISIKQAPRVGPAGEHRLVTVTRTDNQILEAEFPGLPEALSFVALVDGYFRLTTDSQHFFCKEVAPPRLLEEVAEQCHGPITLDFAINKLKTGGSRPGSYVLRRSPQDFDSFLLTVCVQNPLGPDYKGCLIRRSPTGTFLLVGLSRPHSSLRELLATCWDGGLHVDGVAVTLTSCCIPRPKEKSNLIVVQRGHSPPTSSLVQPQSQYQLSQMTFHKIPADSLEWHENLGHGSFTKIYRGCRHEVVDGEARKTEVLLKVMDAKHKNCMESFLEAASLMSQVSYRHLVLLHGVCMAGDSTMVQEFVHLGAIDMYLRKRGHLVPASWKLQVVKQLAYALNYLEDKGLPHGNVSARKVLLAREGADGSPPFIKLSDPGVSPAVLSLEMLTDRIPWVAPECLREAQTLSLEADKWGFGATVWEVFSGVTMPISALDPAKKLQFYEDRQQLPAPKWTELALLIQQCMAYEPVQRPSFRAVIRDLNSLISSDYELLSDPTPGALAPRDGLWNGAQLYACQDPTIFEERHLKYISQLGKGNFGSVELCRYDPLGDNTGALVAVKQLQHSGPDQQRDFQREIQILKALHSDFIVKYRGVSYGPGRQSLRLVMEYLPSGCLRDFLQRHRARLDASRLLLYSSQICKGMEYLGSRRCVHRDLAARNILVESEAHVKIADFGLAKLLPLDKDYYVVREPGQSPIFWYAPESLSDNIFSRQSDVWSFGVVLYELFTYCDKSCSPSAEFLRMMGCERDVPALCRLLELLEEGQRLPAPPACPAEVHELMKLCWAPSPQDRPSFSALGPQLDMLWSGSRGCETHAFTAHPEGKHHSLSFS
# [3] = Cytotoxicity against rat NRK cells incubated for 12 hrs by MTT assay; type: toxicity, cell-based
# [4] = AUC(all) in Sprague-Dawley rat at 50 mg/kg, po measured for 720 mins by LC/MS analysis; type: ADME, organism-based; set-up: dose 50 mg/kg, time 720 min, route po; settings: in vivo
# [5] = AUC(all) in Sprague-Dawley rat at 5 mg/kg, iv measured for 720 mins by LC/MS analysis; type: ADME, organism-based; set-up: time 720 min, dose 5 mg/kg, route iv; settings: in vivo
# [6] = biological target: Non-receptor tyrosine-protein kinase TYK2 (Homo sapiens, UniProt P29597); assay: Inhibition of TYK2 (unknown origin) using kinetic substrate in presence of ATP by mobility shift assay
# [7] = biological target: Tyrosine-protein kinase JAK1 (Homo sapiens, UniProt P23458); assay: Inhibition of JAK1 (unknown origin) using kinetic substrate in presence of ATP by mobility shift assay
# Tyrosine-protein kinase JAK1, sequence (P23458 whole entry): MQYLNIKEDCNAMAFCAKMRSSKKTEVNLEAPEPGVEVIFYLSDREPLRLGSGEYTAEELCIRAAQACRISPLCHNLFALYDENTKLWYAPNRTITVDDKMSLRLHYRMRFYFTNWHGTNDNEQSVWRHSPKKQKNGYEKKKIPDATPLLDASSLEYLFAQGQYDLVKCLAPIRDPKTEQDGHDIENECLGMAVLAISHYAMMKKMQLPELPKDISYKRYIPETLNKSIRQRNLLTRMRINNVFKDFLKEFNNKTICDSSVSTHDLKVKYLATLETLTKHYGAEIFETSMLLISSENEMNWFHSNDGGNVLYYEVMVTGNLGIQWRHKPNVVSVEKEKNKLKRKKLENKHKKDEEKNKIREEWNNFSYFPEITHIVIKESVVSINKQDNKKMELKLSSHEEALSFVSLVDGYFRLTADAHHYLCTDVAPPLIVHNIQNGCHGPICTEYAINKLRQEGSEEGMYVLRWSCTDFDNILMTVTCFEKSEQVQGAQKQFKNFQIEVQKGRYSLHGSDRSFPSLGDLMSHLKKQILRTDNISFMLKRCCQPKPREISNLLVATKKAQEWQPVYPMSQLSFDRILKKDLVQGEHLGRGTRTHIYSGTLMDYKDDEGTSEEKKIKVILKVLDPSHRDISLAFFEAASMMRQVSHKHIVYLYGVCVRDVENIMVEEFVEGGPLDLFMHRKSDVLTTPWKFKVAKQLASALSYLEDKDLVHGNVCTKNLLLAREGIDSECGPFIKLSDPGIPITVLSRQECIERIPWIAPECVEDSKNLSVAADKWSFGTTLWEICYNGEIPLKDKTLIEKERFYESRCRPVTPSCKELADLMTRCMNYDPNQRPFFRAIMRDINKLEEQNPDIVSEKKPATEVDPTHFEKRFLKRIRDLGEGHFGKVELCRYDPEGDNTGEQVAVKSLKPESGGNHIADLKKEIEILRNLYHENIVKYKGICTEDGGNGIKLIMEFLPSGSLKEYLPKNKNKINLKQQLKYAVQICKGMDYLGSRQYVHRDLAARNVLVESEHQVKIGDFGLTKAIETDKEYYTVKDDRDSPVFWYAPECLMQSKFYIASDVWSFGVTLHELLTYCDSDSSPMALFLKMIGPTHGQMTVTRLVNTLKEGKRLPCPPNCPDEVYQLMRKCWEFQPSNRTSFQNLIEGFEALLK
# [8] = Cytotoxicity against human L02 cells incubated for 48 hrs by MTT assay; type: toxicity, cell-based
# [9] = Cytotoxicity against mouse RAW264.7 cells incubated for 12 hrs by MTT assay; type: toxicity, cell-based
# [10] = Cytotoxicity against mouse RAW264.7 cells incubated for 48 hrs by MTT assay; type: toxicity, cell-based
# [11] = Cytotoxicity against HUVEC cells incubated for 48 hrs by MTT assay; type: toxicity, cell-based; settings: human
# [12] = Cytotoxicity against HUVEC cells incubated for 24 hrs by MTT assay; type: toxicity, cell-based; settings: human
# [13] = biological target: Voltage-gated inwardly rectifying potassium channel KCNH2 (Homo sapiens, UniProt Q12809); assay: Inhibition of human ERG by patch clamp assay
# Voltage-gated inwardly rectifying potassium channel KCNH2, sequence (Q12809 whole entry): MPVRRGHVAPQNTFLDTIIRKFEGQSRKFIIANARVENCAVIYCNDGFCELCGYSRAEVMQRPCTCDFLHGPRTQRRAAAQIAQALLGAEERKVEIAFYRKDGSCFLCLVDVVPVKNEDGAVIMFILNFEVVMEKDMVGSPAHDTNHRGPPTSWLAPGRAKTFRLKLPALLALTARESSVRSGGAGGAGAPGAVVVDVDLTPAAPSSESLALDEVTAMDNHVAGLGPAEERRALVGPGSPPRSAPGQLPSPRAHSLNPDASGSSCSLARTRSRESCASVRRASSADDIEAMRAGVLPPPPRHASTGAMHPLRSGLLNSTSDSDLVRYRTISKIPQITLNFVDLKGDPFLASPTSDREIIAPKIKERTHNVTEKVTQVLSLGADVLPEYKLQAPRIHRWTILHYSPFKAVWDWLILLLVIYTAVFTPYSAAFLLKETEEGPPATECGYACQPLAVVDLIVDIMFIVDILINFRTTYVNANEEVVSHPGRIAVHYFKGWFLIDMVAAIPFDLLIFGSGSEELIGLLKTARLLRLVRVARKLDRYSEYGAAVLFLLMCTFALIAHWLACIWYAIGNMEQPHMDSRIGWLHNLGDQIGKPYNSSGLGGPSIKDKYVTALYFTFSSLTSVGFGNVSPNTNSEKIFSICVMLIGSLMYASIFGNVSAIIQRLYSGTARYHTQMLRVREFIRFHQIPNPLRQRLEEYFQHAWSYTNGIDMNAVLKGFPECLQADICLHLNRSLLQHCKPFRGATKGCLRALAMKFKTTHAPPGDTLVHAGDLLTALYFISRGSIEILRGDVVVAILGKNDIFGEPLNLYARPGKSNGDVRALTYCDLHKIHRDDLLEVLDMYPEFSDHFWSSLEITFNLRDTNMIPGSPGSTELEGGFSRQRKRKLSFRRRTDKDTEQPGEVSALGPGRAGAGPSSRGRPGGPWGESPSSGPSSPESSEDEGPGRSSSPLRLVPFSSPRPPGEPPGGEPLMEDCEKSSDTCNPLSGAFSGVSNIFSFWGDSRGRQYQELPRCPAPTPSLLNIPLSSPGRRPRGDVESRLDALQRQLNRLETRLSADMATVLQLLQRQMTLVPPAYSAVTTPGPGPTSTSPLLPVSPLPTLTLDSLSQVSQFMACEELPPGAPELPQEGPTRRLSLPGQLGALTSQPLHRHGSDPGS
# [14] = biological target: Tyrosine-protein kinase JAK2 (Homo sapiens, UniProt O60674); assay: Inhibition of JAK2 (unknown origin) using kinetic substrate in presence of ATP by mobility shift assay
# Tyrosine-protein kinase JAK2, sequence (O60674 whole entry): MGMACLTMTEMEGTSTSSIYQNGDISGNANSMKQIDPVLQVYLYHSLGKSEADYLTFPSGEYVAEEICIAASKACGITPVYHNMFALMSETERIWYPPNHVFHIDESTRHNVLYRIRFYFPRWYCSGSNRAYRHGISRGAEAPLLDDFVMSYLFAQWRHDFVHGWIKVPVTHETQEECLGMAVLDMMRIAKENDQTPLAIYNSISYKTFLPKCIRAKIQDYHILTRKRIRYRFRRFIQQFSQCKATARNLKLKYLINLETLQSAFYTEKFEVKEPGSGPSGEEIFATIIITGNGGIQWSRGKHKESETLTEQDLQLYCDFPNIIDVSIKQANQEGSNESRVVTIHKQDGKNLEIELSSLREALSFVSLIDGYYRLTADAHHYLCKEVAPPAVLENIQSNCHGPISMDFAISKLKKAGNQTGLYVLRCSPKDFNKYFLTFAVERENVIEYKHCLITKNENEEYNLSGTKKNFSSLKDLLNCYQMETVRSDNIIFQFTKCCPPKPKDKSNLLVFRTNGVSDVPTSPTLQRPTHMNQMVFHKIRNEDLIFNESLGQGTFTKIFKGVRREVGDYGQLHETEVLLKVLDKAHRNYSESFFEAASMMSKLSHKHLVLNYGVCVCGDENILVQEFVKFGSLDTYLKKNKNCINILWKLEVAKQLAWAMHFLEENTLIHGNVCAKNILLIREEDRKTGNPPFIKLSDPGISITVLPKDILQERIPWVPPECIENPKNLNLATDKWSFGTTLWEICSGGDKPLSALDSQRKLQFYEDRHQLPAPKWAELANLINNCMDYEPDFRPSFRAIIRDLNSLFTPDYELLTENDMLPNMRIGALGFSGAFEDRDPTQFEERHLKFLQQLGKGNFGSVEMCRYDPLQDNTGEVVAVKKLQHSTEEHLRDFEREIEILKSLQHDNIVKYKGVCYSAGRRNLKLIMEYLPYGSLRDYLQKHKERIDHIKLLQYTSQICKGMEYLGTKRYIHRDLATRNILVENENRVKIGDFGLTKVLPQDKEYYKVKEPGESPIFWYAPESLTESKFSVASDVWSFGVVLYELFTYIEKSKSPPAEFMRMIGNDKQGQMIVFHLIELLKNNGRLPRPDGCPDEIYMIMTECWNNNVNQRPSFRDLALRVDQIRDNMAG
# [15] = Cytotoxicity against mouse RAW264.7 cells incubated for 24 hrs by MTT assay; type: toxicity, cell-based
# [16] = Cytotoxicity against rat NRK cells incubated for 48 hrs by MTT assay; type: toxicity, cell-based
# [17] = Cytotoxicity against human L02 cells incubated for 12 hrs by MTT assay; type: toxicity, cell-based
# [18] = Observed MRT(infinity) in Sprague-Dawley rat at 50 mg/kg, po measured for 720 mins by LC/MS analysis; type: ADME, organism-based; settings: in vivo
# [19] = Observed MRT(infinity) in Sprague-Dawley rat at 5 mg/kg, iv measured for 720 mins by LC/MS analysis; type: ADME, organism-based; settings: in vivo
# [20] = Half life in Sprague-Dawley rat at 50 mg/kg, po by LC/MS analysis; type: ADME, organism-based; settings: in vivo
# [21] = Cytotoxicity against rat NRK cells incubated for 24 hrs by MTT assay; type: toxicity, cell-based
# [22] = Oral bioavailability in Sprague-Dawley rat at 50 mg/kg measured for 720 mins by LC/MS analysis; type: ADME, organism-based; settings: in vivo
# [23] = Cytotoxicity against HUVEC cells incubated for 12 hrs by MTT assay; type: toxicity, cell-based; settings: human
# [24] = Cytotoxicity against human L02 cells incubated for 24 hrs by MTT assay; type: toxicity, cell-based
# [25] = Cmax in Sprague-Dawley rat at 50 mg/kg, po measured for 720 mins by LC/MS analysis; type: ADME, organism-based; set-up: dose 50 mg/kg, time 720 min, route po; settings: in vivo
# [26] = Acute toxicity in po dosed ICR mouse assessed as minimum lethal dose measured for 7 days; type: organism-based; settings: in vivo, 168 h, time 7 day
# [27] = Tmax in Sprague-Dawley rat at 50 mg/kg, po by LC/MS analysis; type: ADME, organism-based; settings: in vivo
# [28] = tested on: Daudi; assay: Antiproliferative activity against human Daudi cells assessed as inhibition of cell growth incubated for 72 hrs by Cell Titer-Glo assay; type: functional, cell-based
# [29] = tested on: BaF3; assay: Antiproliferative activity against mouse BaF3 cells expressing JAK3 mutant assessed as inhibition of cell growth incubated for 72 hrs by Cell Titer-Glo assay; type: functional, cell-based; settings: BaF3, 72 h
# Tyrosine-protein kinase BTK, sequence (Q06187 whole entry): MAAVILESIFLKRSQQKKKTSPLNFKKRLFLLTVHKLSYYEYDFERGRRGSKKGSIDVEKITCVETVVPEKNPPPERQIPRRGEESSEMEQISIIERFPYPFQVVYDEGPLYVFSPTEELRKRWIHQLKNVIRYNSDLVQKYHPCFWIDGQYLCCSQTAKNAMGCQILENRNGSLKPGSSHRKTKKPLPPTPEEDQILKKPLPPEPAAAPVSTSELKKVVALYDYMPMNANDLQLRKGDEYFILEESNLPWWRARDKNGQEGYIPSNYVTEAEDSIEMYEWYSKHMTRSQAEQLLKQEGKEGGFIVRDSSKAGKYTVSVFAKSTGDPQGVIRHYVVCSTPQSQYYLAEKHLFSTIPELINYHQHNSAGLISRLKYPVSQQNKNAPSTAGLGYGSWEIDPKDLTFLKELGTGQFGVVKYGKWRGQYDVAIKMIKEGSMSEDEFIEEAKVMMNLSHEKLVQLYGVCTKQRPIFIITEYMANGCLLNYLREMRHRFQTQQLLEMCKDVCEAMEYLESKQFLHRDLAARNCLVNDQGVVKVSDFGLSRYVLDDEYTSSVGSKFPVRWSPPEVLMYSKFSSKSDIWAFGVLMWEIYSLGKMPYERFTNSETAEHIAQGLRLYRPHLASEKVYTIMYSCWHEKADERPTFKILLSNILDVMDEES
smiles,measurement,setting,value
C=CC(=O)N1CCC[C@@H](n2nc(-c3ccc(NC(=O)c4ccc(C(C)(C)C)cc4)c4c3OCO4)c3c(N)ncnc32)C1,IC50,[1],2.7 nM
same,IC50,[2],37 nM
C=CC(=O)N1CCC[C@@H](n2nc(-c3ccc(NC(=O)c4ccccc4)c4c3OCO4)c3c(N)ncnc32)C1,IC50,[1],1.3 nM
same,IC50,[2],73 nM
C=CC(=O)N1CCC[C@@H](n2nc(-c3ccc(NC(=O)c4cccs4)c4c3OCO4)c3c(N)ncnc32)C1,IC50,[1],1.7 nM
same,IC50,[2],61 nM
C=CC(=O)N1CCC[C@@H](n2nc(-c3ccc(NC(=O)c4cccc(Cl)c4)c4c3OCO4)c3c(N)ncnc32)C1,IC50,[1],1.8 nM
same,IC50,[2],44 nM
C=CC(=O)N1CCC[C@@H](n2nc(-c3ccc(NC(=O)c4ccccn4)c4c3OCO4)c3c(N)ncnc32)C1,IC50,[1],1.4 nM
same,IC50,[2],70 nM
C=CC(=O)N1CCC[C@@H](n2nc(-c3ccc(NC(=O)c4ccccc4Cl)c4c3OCO4)c3c(N)ncnc32)C1,IC50,[1],2 nM
same,IC50,[2],106 nM
C=CC(=O)N1CCC[C@@H](n2nc(-c3ccc(NC(=O)c4sc5ccccc5c4Cl)c4c3OCO4)c3c(N)ncnc32)C1,IC50,[1],2.4 nM
same,IC50,[2],30 nM
CCC(=O)N1CCC[C@@H](n2nc(-c3ccc(NC(=O)c4ccccc4)c4c3OCO4)c3c(N)ncnc32)C1,IC50,[1],46 nM
same,IC50,[2],> 10000 nM
C=CC(=O)N1CCC[C@@H](n2nc(-c3ccc(NC(=O)c4cccc5c4CCCC5)c4c3OCO4)c3c(N)ncnc32)C1,IC50,[1],1.9 nM
same,IC50,[2],35 nM
N#CCC(=O)N1CCC[C@@H](n2nc(-c3ccc(NC(=O)c4ccccc4)c4c3OCO4)c3c(N)ncnc32)C1,IC50,[1],60 nM
same,IC50,[2],> 10000 nM
C=CC(=O)N1CCC[C@@H]1Cn1nc(-c2ccc(NC(=O)c3ccc(N(C)C)cc3)c3c2OCO3)c2c(N)ncnc21,IC50,[1],6 nM
same,IC50,[2],645 nM
C=CC(=O)N1CCC[C@@H](n2nc(-c3ccc(NC(=O)c4ccc(N(CC)CC)cc4)c4c3OCO4)c3c(N)ncnc32)C1,IC50,[1],2.2 nM
same,IC50,[2],27 nM
C=CC(=O)N1CCC[C@@H](n2nc(-c3ccc(NC(=O)c4ccc(OC)cc4)c4c3OCO4)c3c(N)ncnc32)C1,IC50,[1],1.5 nM
same,IC50,[2],44 nM
C=CC(=O)N1CCC[C@@H](n2nc(-c3ccc(NC(=O)c4ccc(N(C)C)cc4)c4c3OCO4)c3c(N)ncnc32)C1,IC50 at 12 h,[3],51000 nM
same,AUC at 12 h,[4],437 ng·h/mL
same,AUC at 12 h,[5],299 ng·h/mL
same,IC50,[6],> 10000 nM
same,IC50,[7],> 10000 nM
same,IC50 at 48 h,[8],9610 nM
same,IC50 at 12 h,[9],60800 nM
same,IC50 at 48 h,[10],19700 nM
same,IC50 at 48 h,[11],27300 nM
same,IC50 at 24 h,[12],40600 nM
same,IC50,[13],14800 nM
same,IC50,[14],> 10000 nM
same,IC50 at 24 h,[15],50600 nM
same,IC50,[1],2 nM
same,IC50 at 48 h,[16],11800 nM
same,IC50 at 12 h,[17],69900 nM
same,MRT inf,[18],3.4 h
same,MRT inf,[19],9.36 min
same,half-life,[20],2.57 h
same,IC50 at 24 h,[21],15700 nM
same,bioavailability,[22],13.2%
same,IC50 at 12 h,[23],50000 nM
same,IC50 at 24 h,[24],28200 nM
same,IC50,[2],14 nM
same,Cmax,[25],209 ng/mL
same,MLD,[26],> 1600 mg/kg
same,Tmax,[27],0.459 h
same,IC50,[28],690 nM
same,IC50,[29],366 nM
C=CC(=O)N1CCC[C@@H](n2nc(-c3ccc(NC(=O)c4cccc(N(C)C)c4)c4c3OCO4)c3c(N)ncnc32)C1,IC50,[1],1.02 nM
same,IC50,[2],97 nM
C=CC(=O)N1CCC[C@@H](n2nc(-c3ccc(NC(=O)c4ccc(F)cc4)c4c3OCO4)c3c(N)ncnc32)C1,IC50,[1],0.9 nM
same,IC50,[2],176 nM
